Laboratory results as given in patent US8314143B2, “Synthetic flavonoids and pharmaceutical compositions and therapeutic methods of treatment of HIV infection and other pathologies” (Florida A&M University, priority 2006, dated 2012).
Several values for one entry are separate records, joined by “and”; a condition that tells them apart may be missing. Equal values may be shown once. Entries after “also recorded” stand apart in the source; their conditions may differ.

Assays:
Type in all cases: cell-based
[1] = test system: MCF-7 cells; test: Cytoxicity on MCF-7 cells (drug inhibition, cell count); parameters: Drug Inhibition on MCF-7 Cells / MCF-7 Mean (drug inhibition) / Drug inhibition on MCF-7 Cells Mean: unit not given here; conditions: MCF-7 cells; for Drug Inhibition on MCF-7 Cells: Table 8 summary; for % Inhibition Mean / Cells (×10^4) Mean / % Inhibition / Cells (×10^4): Exp. Nov. 14 to Nov. 18, 2005; for % Inhibition / Cells (×10^4): single replicates
Text: (§1) The purified and identified analogs were subjected to in vitro biological testing. […] These three congeners were further evaluated in H9 and PC3 cells. AZT was employed as a positive control in all of these experiments.

[2] = test system: H-9 cells; test: Cytoxicity on H-9 cells (drug inhibition, cell count); conditions: for H-9 Mean (drug inhibition): Table 4 summary; for % Inhibition Mean / Cells (×10^4) Mean / % Inhibition / Cells (×10^4): Exp. Dec. 05 to Dec. 09, 2005; for % Inhibition / Cells (×10^4): single replicates
Text: as §1

[3] = test system: PC-3 cells; test: Cytoxicity on PC-3 cells (drug inhibition, cell count); conditions: for Drug Inhibition on PC-3 cells: Table 7; for % Inhibition Mean / Cells (×10^4) Mean / % Inhibition / Cells (×10^4): Exp. Nov. 11 to Nov. 17, 2005; for % Inhibition / Cells (×10^4): single replicates
Text: The purified and identified analogs were subjected to in vitro biological testing.

COc1ccc(C=CC(=O)c2cc(Br)cc(Br)c2O)cc1OC [CHBr 2M]
response to MCF-7 cells in the different drug concentrations [1]: good activities | Drug Inhibition on MCF-7 Cells ([1]; 1 μg/ml): 15.13 | % Inhibition Mean ([1]; 1 μg/ml): 15.13% | Cells (×10^4) Mean ([1]; 1 μg/ml): 49.08 ×10^4 | % Inhibition ([1]; 1 μg/ml): 15.71% and 10.95% and 18.73% | Cells (×10^4) ([1]; 1 μg/ml): 48.6 ×10^4 and 51.5 ×10^4 and 47.0 ×10^4 | Drug Inhibition on MCF-7 Cells ([1]; 5 μg/ml): 54.61 | % Inhibition Mean ([1]; 5 μg/ml): 54.61% | Cells (×10^4) Mean ([1]; 5 μg/ml): 26.25 ×10^4 | % Inhibition ([1]; 5 μg/ml): 53.31% and 56.34% and 54.18% | Cells (×10^4) ([1]; 5 μg/ml): 27.0 ×10^4 and 25.3 ×10^4 and 26.5 ×10^4 | Drug Inhibition on MCF-7 Cells ([1]; 10 μg/ml): 86.31 | % Inhibition Mean ([1]; 10 μg/ml): 86.31% | Cells (×10^4) Mean ([1]; 10 μg/ml): 7.92 ×10^4 | % Inhibition ([1]; 10 μg/ml): 87.46% and 84.44% and 87.03% | Cells (×10^4) ([1]; 10 μg/ml): 7.3 ×10^4 and 9.0 ×10^4 and 7.5 ×10^4 | Drug Inhibition on MCF-7 Cells ([1]; 50 μg/ml): 98.709 | % Inhibition Mean ([1]; 50 μg/ml): 98.70% | Cells (×10^4) Mean ([1]; 50 μg/ml): 0.75 ×10^4 | % Inhibition ([1]; 50 μg/ml): 98.70% and 98.27% and 99.14% | Cells (×10^4) ([1]; 50 μg/ml): 0.8 ×10^4 and 1.0 ×10^4 and 0.5 ×10^4 | inhibitory activity compared to AZT ([1]; same conditions as AZT): much superior inhibitory activities; also recorded: as good or somewhat better | H-9 Mean (drug inhibition) ([2]; 1 μg/ml): 5.64 | % Inhibition Mean ([2]; 1 μg/ml): 5.64% | Cells (×10^4) Mean ([2]; 1 μg/ml): 47.42 ×10^4 | % Inhibition ([2]; 1 μg/ml): 9.45% and 1.49% and 5.97% | Cells (×10^4) ([2]; 1 μg/ml): 45.5 ×10^4 and 49.5 ×10^4 and 47.3 ×10^4 | H-9 Mean (drug inhibition) ([2]; 5 μg/ml): 49.59 | % Inhibition Mean ([2]; 5 μg/ml): 49.59% | Cells (×10^4) Mean ([2]; 5 μg/ml): 25.33 ×10^4 | % Inhibition ([2]; 5 μg/ml): 49.25% and 50.76% and 48.76% | Cells (×10^4) ([2]; 5 μg/ml): 25.5 ×10^4 and 24.8 ×10^4 and 25.8 ×10^4 | H-9 Mean (drug inhibition) ([2]; 10 μg/ml): 65.01 | % Inhibition Mean ([2]; 10 μg/ml): 65.01% | Cells (×10^4) Mean ([2]; 10 μg/ml): 17.58 ×10^4 | % Inhibition ([2]; 10 μg/ml): 63.68% and 67.66% and 63.88% | Cells (×10^4) ([2]; 10 μg/ml): 18.3 ×10^4 (2×) and 16.3 ×10^4 | H-9 Mean (drug inhibition) ([2]; 50 μg/ml): 76.95 | % Inhibition Mean ([2]; 50 μg/ml): 76.95% | Cells (×10^4) Mean ([2]; 50 μg/ml): 11.58 ×10^4 | % Inhibition ([2]; 50 μg/ml): 76.62% and 77.11% | Cells (×10^4) ([2]; 50 μg/ml): 11.8 ×10^4 and 11.5 ×10^4 (2×) | inhibitory activity compared to AZT ([2]; same conditions as AZT): much superior inhibitory activities; also recorded: as good or somewhat better | Drug Inhibition on PC-3 cells ([3]; 1 μg/ml): 47.1 | % Inhibition Mean ([3]; 1 μg/ml): 27.64% | Cells (×10^4) Mean ([3]; 1 μg/ml): 70.92 ×10^4 | % Inhibition ([3]; 1 μg/ml): 25.26% and 26.53% and 31.12% | Cells (×10^4) ([3]; 1 μg/ml): 73.3 ×10^4 and 72.0 ×10^4 and 67.5 ×10^4 | Drug Inhibition on PC-3 cells ([3]; 5 μg/ml): 65.88 | % Inhibition Mean ([3]; 5 μg/ml): 27.72% | Cells (×10^4) Mean ([3]; 5 μg/ml): 70.83 ×10^4 | Cells (×10^4) ([3]; 5 μg/ml): 75.5 ×10^4 and 68.0 ×10^4 and 69.0 ×10^4 | Drug Inhibition on PC-3 cells ([3]; 10 μg/ml): 78.04 | % Inhibition Mean ([3]; 10 μg/ml): 26.28% | Cells (×10^4) Mean ([3]; 10 μg/ml): 72.25 ×10^4 | Drug Inhibition on PC-3 cells ([3]; 50 μg/ml): 89.50 | % Inhibition Mean ([3]; 50 μg/ml): 42.86% | Cells (×10^4) Mean ([3]; 50 μg/ml): 56.00 ×10^4 | % Inhibition ([3]; 50 μg/ml): 41.33% and 45.92% | Cells (×10^4) ([3]; 50 μg/ml): 57.5 ×10^4 (2×) and 53.0 ×10^4 | inhibitory activity compared to AZT ([3]; same conditions as AZT): much superior inhibitory activities; also recorded: as good or somewhat better
